Reference: patent US12102085B2, “Insecticidal active mixtures comprising carboxamide compound” (priority 2013, dated 2024)

Tests used:
Assay type in all cases: in vivo
[1] = system: yellow fever mosquito (Aedes aegypti); assay: Test B.3 Control of yellow fever mosquito, larvae in 96-well microtiter plates; conditions: 2 days, larval mortality
Method: Test Principle: Curative Ultrasonic Spraying of Larvae in Liquid Diet
For evaluating control of yellow fever mosquito (Aedes aegypti) the test unit consisted of 96-well-microtiter plates containing 200 μl of tap water per well and 5-15 freshly hatched A. aegypti larvae.
The compounds or mixtures were formulated using a solution containing 75% (v/v) water and 25% (v/v) DMSO. Different concentrations of formulated compounds or mixtures were sprayed onto the insect diet at 2.5 μl, using a custom built micro atomizer, at two replications.
(§1) For the experimental mixtures in this test identical volumes of both mixing partners at the desired concentrations respectively, were mixed together.
After application, microtiter plates were incubated at 28±1° C., 80±5% RH for 2 days.
Larval mortality was then visually assessed.

[2] = system: vetch aphid (Megoura viciae); assay: Test B.1 Control of vetch aphid, sprayed broad bean leaf disks in 24-well microtiter plates; conditions: 5 days, aphid mortality and fecundity
Method: For evaluating control of vetch aphid (Megoura viciae) through contact or systemic means the test unit consisted of 24-well-microtiter plates containing broad bean leaf disks.
The compounds or mixtures were formulated using a solution containing 75% (v/v) water and 25% (v/v) DMSO. Different concentrations of formulated compounds or mixtures were sprayed onto the leaf disks at 2.5 μl, using a custom built micro atomizer, at two replications.
as §1
After application, the leaf disks were air-dried and 5-8 adult aphids placed on the leaf disks inside the microtiter plate wells. The aphids were then allowed to suck on the treated leaf disks and incubated at 23±1° C., 50±5% RH for 5 days.
Aphid mortality and fecundity was then visually assessed.

[3] = system: Southern Green Stink Bug (Nezara viridula); assay: Test B.6 Control of Southern Green Stink Bug, dipped green beans and dipped insects; conditions: for Average Control % [observed mortality]: Nezara viridula 4th instar, 5 ppm, after 5 days
Method: The compounds and respective mixtures were formulated using a solution containing 50:50 water:acetone with 0.01 wt % Kinetic®. Whole Green Beans were rinsed in a 1% bleach solution, triple rinsed with DI water, and allowed to air dry at least 30 minutes in the fume hood. They were dipped in treatment solutions for approximately 5 seconds and allowed to air dry for another 30 minutes in the fume hood. For maximum exposure, Southern Green Stink Bugs (SGSB, 4th instar) were dipped in treatment solution for approximately 3 seconds and allowed to air dry in a cup lined with filter paper and closed with a vented lid for approximately 10 minutes in the fume hood. Three beans were placed in cups with a dry filter paper in the bottom and a portion cup with a cotton wick for water (=assay arena), and were infested with 4 SGSB per cup. Each treatment was replicated 3-fold (1 replicate=3 beans with 4 SGSB). The assays arenas were held at 27° C. and 45% room humidity. Data were recorded after 5 days as number of insects alive and dead. Nezara viridula mortality (%) was calculated as: [(pre-treatment count−post treatment count)/pre-treatment count]×100.

[4] = system: boll weevil (Anthonomus grandis); assay: Test B.2 Control of boll weevil, insect diet with eggs in 24-well microtiter plates; conditions: 5 days, egg and larval mortality
Method: For evaluating control of boll weevil (Anthonomus grandis) the test unit consisted of 24-well-microtiter plates containing an insect diet and 20-30 A. grandis eggs.
The compounds or mixtures were formulated using a solution containing 75% (v/v) water and 25% (v/v) DMSO. Different concentrations of formulated compounds or mixtures were sprayed onto the insect diet at 20 μl, using a custom built micro atomizer, at two replications.
as §1
After application, microtiter plates were incubated at 23±1° C., 50±5% RH for 5 days.
(§2) Egg and larval mortality was then visually assessed.

[5] = system: tobacco budworm (Heliothis virescens); assay: Test B.4 Control of tobacco budworm, insect diet with eggs in 96-well microtiter plates; conditions: 5 days, egg and larval mortality
Method: For evaluating control of tobacco budworm (Heliothis virescens) the test unit consisted of 96-well-microtiter plates containing an insect diet and 15-25 H. virescens eggs.
The compounds or mixtures were formulated using a solution containing 75% (v/v) water and 25% (v/v) DMSO. Different concentrations of formulated compounds or mixtures were sprayed onto the insect diet at 10 μl, using a custom built micro atomizer, at two replications.
as §1
(§3) After application, microtiter plates were incubated at 28±1° C., 80±5% RH for 5 days.
as §2

[6] = system: Mediterranean fruitfly (Ceratitis capitata); assay: Test B.5 Control of Mediterranean fruitfly, insect diet with eggs in 96-well microtiter plates; conditions: 5 days, egg and larval mortality
Method: For evaluating control of Mediterranean fruitfly (Ceratitis capitata) the test unit consisted of 96-well-microtiter plates containing an insect diet and 50-80 C. capitata eggs.
The compounds and respective mixtures were formulated using a solution containing 75% (v/v) water and 25% (v/v) DMSO. Different concentrations of formulated compounds and mixtures were sprayed onto the insect diet at 5 μl, using a custom built micro atomizer, at two replications. For the experimental mixtures in this test identical volumes of both mixing partners at the desired concentrations respectively, were mixed together.
as §3, §2

[7] = Nezara viridula, 120 h, read-out: Average Control % [observed mortality]

SMILES: Cc1c(COC(=O)[C@@H]2[C@H](/C=C(\Cl)C(F)(F)F)C2(C)C)cccc1-c1ccccc1 (racemic) [Bifenthrin, bifenthrin]
- Average Control % ([1]; 40 + 0 ppm): 0%

SMILES: CC(C)(C)[C@]1(O)C[C@@H]2OC(=O)C[C@@]23C(=O)O[C@@H]2OC(=O)[C@H](O)[C@]213 [Bilobalid, (3aS,5aR,8aS,9R,10aR)-9-tert-butyl-8,9-dihydroxydihydro-9H-furo[2,3-b]furo[3′,2′;2,3]cyclopenta[1,2-c]furan-2,4,7(3H,8H)-trione]
- Average Control % ([2]; 25 ppm): 0%
- Average Control % [observed mortality] [3]: 19%

SMILES: C[C@@H]1C(=O)O[C@H]2C[C@@]34[C@H]5C[C@@H](C(C)(C)C)[C@]36[C@@H](OC(=O)[C@@H]6O)O[C@@]4(C(=O)O5)[C@]21O [Ginkolide A, ginkgolide A]
- Average Control % [observed mortality] [3]: 13%

SMILES: O=[N+]([O-])NC1=NCCN1Cc1ccc(Cl)nc1 [Imidacloprid, imidacloprid]
- Average Control % ([4]; 10 ppm): 0%
- Average Control % ([5]; 0.4 ppm): 0%
- Average Control % ([6]; 10 ppm): 25%

SMILES: O=C(NC(=O)c1c(F)cccc1F)Nc1cc(Cl)c(F)c(Cl)c1F [Teflubenzuron, teflubenzuron]
- Average Control % ([2]; 2 ppm): 0%
- Average Control % ([5]; 50 ppm): 0%

SMILES: CN(C(=O)c1ccccc1)c1cccc(C(=O)Nc2c(Br)cc(C(F)(C(F)(F)F)C(F)(F)F)cc2C(F)(F)F)c1F [carboxamide compound of formula I]
- Average Control % ([2]; 0.02 ppm): 0%
- Average Control % ([2]; 0.5 ppm): 0%
- Average Control % ([4]; 0.5 ppm): 0%
- Average Control % ([1]; 0 + 0.5 ppm): 0%
- Average Control % ([5]; 0.1 ppm): 0%
- Average Control % ([5]; 0.5 ppm): 50%
- Average Control % ([6]; 0 ppm (so in the source)): 0%
- mortality at 1 ppm [3, 7]: 13%
- mortality at 10 ppm [3, 7]: 88%
